{"source": "patent US20250312313A1", "about": "“PHARMACEUTICAL COMPOSITION FOR SUBLINGUAL ADMINISTRATION OF CLONIDINE” (NOVUMGEN LIMITED, priority 2022, published 2025)", "origin": "cited, not measured here", "settings": "oral"}
{"smiles": "Clc1cccc(Cl)c1N=C1NCCN1", "note": "[Clonidine]", "values": [{"measurement": "absorption from the gastrointestinal tract", "value": "almost completely absorbed"}]}
